Assays:
[1] = (§1) The drug is tested on WLS-007 corresponding to human gut metagenome with ENA study accession number: PRJEB37062 and ENA sample accession number: ERS12561742 for biotransformation under anaerobic condition. The drug concentrations were measured over 9 timepoints collected between 0 and 24 hours of incubation by liquid-chromatography-coupled mass spectrometry (LC–MS); conditions: 2 µM
[2] = as §1, with “WLS-006” for “WLS-007”, “ERS12561741” for “ERS12561742”; conditions: 2 µM
[3] = as §1, with “Z-026” for “WLS-007”, “to” for “to human gut”, “ERS12561825” for “ERS12561742”; conditions: 2 µM
[4] = as §1, with “WLS-086” for “WLS-007”, “ERS12561752” for “ERS12561742”; conditions: 2 µM
[5] = human gut metagenome, 24 h, 2 µM
[6] = human gut metagenome, 24 h, 2 µM; remark: listed apart in the source
[7] = as §1, with “Z-021” for “WLS-007”, “to” for “to human gut”, “ERS12561820” for “ERS12561742”; conditions: 2 µM
[8] = as §1, with “WLS-220” for “WLS-007”, “ERS12561769” for “ERS12561742”; conditions: 2 µM
[9] = human gut metagenome, 24 h, 2 µM; remark: listed apart in the source
[10] = human gut metagenome, 24 h, 2 µM; remark: listed apart in the source
[11] = as §1, with “WLS-027” for “WLS-007”, “ERS12561744” for “ERS12561742”; conditions: 2 µM
[12] = as §1, with “Z-030” for “WLS-007”, “mouse” for “human”, “ERS12561829” for “ERS12561742”; conditions: 2 µM
[13] = human gut metagenome, 24 h, 2 µM; remark: listed apart in the source
[14] = human gut metagenome, 24 h, 2 µM; remark: listed apart in the source
[15] = human gut metagenome, 24 h, 2 µM; remark: listed apart in the source
[16] = as §1, with “Z-025” for “WLS-007”, “rabbit” for “human”, “ERS12561824” for “ERS12561742”; conditions: 2 µM
[17] = human gut metagenome, 24 h, 2 µM; remark: listed apart in the source
[18] = as §1, with “WLS-310” for “WLS-007”, “ERS12561785” for “ERS12561742”; conditions: 2 µM
[19] = as §1, with “Z-014” for “WLS-007”, “rat” for “human”, “ERS12561814” for “ERS12561742”; conditions: 2 µM
[20] = as §1, with “Z-027” for “WLS-007”, “to” for “to human gut”, “ERS12561826” for “ERS12561742”; conditions: 2 µM
Further: call rule not given here.

Row | Compound | Bacterial Biotransformation [1] | Bacterial Biotransformation [2] | Bacterial Biotransformation [3] | Bacterial Biotransformation [4] | Bacterial Biotransformation [5] | Bacterial Biotransformation [6] | Bacterial Biotransformation [7] | Bacterial Biotransformation [8] | Bacterial Biotransformation [9] | Bacterial Biotransformation [10] | Bacterial Biotransformation [11] | Bacterial Biotransformation [12] | Bacterial Biotransformation [13] | Bacterial Biotransformation [14] | Bacterial Biotransformation [15] | Bacterial Biotransformation [16] | Bacterial Biotransformation [17] | Bacterial Biotransformation [18] | Bacterial Biotransformation [19] | Bacterial Biotransformation [20]
1 | CCN(C)C(=O)Oc1cccc([C@H](C)N(C)C)c1.O=C(O)C(O)C(O)C(=O)O [RIVASTIGMINE TARTRATE] | Compound NOT metabolized | Compound NOT metabolized | Compound NOT metabolized | Compound NOT metabolized | Compound NOT metabolized | Compound NOT metabolized | Compound NOT metabolized | Compound NOT metabolized | Compound NOT metabolized | Compound NOT metabolized | Compound NOT metabolized | Compound NOT metabolized | Compound NOT metabolized | Compound NOT metabolized | Compound metabolized | Compound NOT metabolized | Compound NOT metabolized | Compound NOT metabolized | Compound NOT metabolized | Compound NOT metabolized
2 | CCCN(CCC)CCc1cccc2c1CC(=O)N2 [ROPINIROLE] | Compound NOT metabolized | Compound NOT metabolized | Compound NOT metabolized | Compound metabolized | Compound NOT metabolized | Compound metabolized | Compound NOT metabolized | Compound metabolized | Compound NOT metabolized | Compound metabolized | Compound NOT metabolized | Compound NOT metabolized | Compound metabolized | Compound metabolized | Compound NOT metabolized | Compound NOT metabolized | Compound metabolized | Compound NOT metabolized | Compound NOT metabolized | Compound NOT metabolized
3 | CN[C@H]1CC[C@@H](c2ccc(Cl)c(Cl)c2)c2ccccc21 [SERTRALINE] | Compound metabolized | Compound metabolized | Compound metabolized | Compound metabolized | Compound metabolized | Compound metabolized | Compound metabolized | Compound metabolized | Compound metabolized | Compound metabolized | Compound metabolized | Compound NOT metabolized | Compound metabolized | Compound metabolized | Compound NOT metabolized | Compound metabolized | Compound NOT metabolized | Compound metabolized | Compound NOT metabolized | Compound metabolized
4 | O=C(O)CCC(=O)O.O=C(O[C@H]1CN2CCC1CC2)N1CCc2ccccc2[C@@H]1c1ccccc1 [SOLIFENACIN SUCCINATE] | Compound metabolized | Compound metabolized | Compound NOT metabolized | Compound metabolized | Compound metabolized | Compound metabolized | Compound metabolized | Compound NOT metabolized | Compound metabolized | Compound NOT metabolized | Compound metabolized | Compound NOT metabolized | Compound metabolized | Compound metabolized | Compound NOT metabolized | Compound metabolized | Compound NOT metabolized | Compound NOT metabolized | Compound NOT metabolized | Compound NOT metabolized
5 | O=C(CCCN1CCC2(CC1)C(=O)NCN2c1ccccc1)c1ccc(F)cc1 [SPIPERONE] | Compound NOT metabolized | Compound metabolized | Compound NOT metabolized | Compound metabolized | Compound NOT metabolized | Compound metabolized | Compound NOT metabolized | Compound metabolized | Compound NOT metabolized | Compound metabolized | Compound NOT metabolized | Compound NOT metabolized | Compound metabolized | Compound metabolized | Compound NOT metabolized | Compound NOT metabolized | Compound NOT metabolized | Compound metabolized | Compound NOT metabolized | Compound NOT metabolized
6 | O=C1C(CC[S+]([O-])c2ccccc2)C(=O)N(c2ccccc2)N1c1ccccc1 (stereo not given) [SULFINPYRAZONE] | Compound metabolized | Compound metabolized | Compound metabolized | Compound metabolized | Compound metabolized | Compound metabolized | Compound NOT metabolized | Compound metabolized | Compound metabolized | Compound metabolized | Compound metabolized | Compound NOT metabolized | Compound metabolized | Compound metabolized | Compound metabolized | Compound NOT metabolized | Compound metabolized | Compound metabolized | Compound NOT metabolized | Compound NOT metabolized
7 | CCOc1ccccc1OCCN[C@H](C)Cc1ccc(OC)c(S(N)(=O)=O)c1.Cl [TAMSULOSIN HYDROCHLORIDE] | Compound NOT metabolized | Compound metabolized | Compound NOT metabolized | Compound metabolized | Compound NOT metabolized | Compound NOT metabolized | Compound metabolized | Compound NOT metabolized | Compound NOT metabolized | Compound metabolized | Compound NOT metabolized | Compound NOT metabolized | Compound metabolized | Compound NOT metabolized | Compound NOT metabolized | Compound NOT metabolized | Compound NOT metabolized | Compound NOT metabolized | Compound NOT metabolized | Compound NOT metabolized
8 | COc1cc2nc(N3CCN(C(=O)C4CCCO4)CC3)nc(N)c2cc1OC (stereo not given) [TERAZOSIN] | Compound metabolized | Compound metabolized | Compound NOT metabolized | Compound metabolized | Compound NOT metabolized | Compound metabolized | Compound NOT metabolized | Compound metabolized | Compound NOT metabolized | Compound NOT metabolized | Compound NOT metabolized | Compound NOT metabolized | Compound NOT metabolized | Compound metabolized | Compound metabolized | Compound NOT metabolized | Compound metabolized | Compound metabolized | Compound NOT metabolized | Compound NOT metabolized

Reference: ChEMBL document CHEMBL5724914, “Linking interpersonal differences in gut microbiota composition and drug biotransformation activity” (2024)
